This note sets out measurements from a melting point compilation (Tetko et al.).

Broadly, the melting point is the temperature, or range, at which the solid turns liquid. The compound `O=C(O)CCC(=O)c1ccc(F)cc1F` showed a melting point of 113 to 115 °C.

The compound `Cc1nnnn1-c1ccc(F)c(N)c1` had a melting point of 156 to 158 °C.

For `Nc1nc(-c2cccc(-n3cnnn3)c2)cs1`, the melting point is 184 to 186 °C.

For the compound `FC(F)Oc1cccc2cccnc12`, the melting point lay in the range of 64 to 66 °C.

In the case of `CC(C)CC(=O)Nc1ccc(Cl)c(C(=O)O)c1`, the melting point is 174 to 176 °C.

For the compound `CN(C)S(=O)(=O)c1ccc(Cl)nc1`, the melting point fell in the range of 117 to 119 °C.

`N#Cc1cncs1` returned a melting point of 51 to 53 °C.

Consider `Nc1nonc1C(=O)N1CCCCC1`, for which the melting point lay in the range of 86 to 88 °C.

`O=C(O)c1cc([N+](=O)[O-])cc2c1OCCO2` gave a melting point of 248 to 250 °C.

The compound `Cc1c(N)cccc1-n1cnnn1` had a melting point of 124 to 126 °C.

On to `CCN1CCN(Cc2ccc(N)cc2)CC1`, for which the melting point was in the range of 72 to 74 °C.

As for `O=C(O)C1(Cc2nc3ccccc3s2)CCCC1`, the melting point fell in the range of 155 to 157 °C.

`CSCCC(NC(=O)Cc1ccccc1)C(=O)O` (stereo not given) gave a melting point of 101 to 103 °C.

On to `Cc1nn2cccnc2c1C(=O)O`, for which the melting point fell in the range of 176 to 178 °C.

`COc1ccc2nc(Sc3ncccc3C(=O)O)[nH]c2c1` registered a melting point of 219 to 221 °C.

With `O=C1CCc2cc(OCCCl)ccc2N1`, the melting point lay within 150 to 152 °C.

The compound `CCOc1ccc(C(CN)c2c[nH]c3ccccc23)cc1OC` (stereo not given) registered a melting point of 114 to 116 °C.

`CCNC(=O)NC(C)(C)C(=O)O` came in with a melting point of 150 to 152 °C.

Regarding `COc1ccccc1C(=O)NCC(=O)O`, the melting point lay in the range of 69 to 71 °C.

`CN(C)CCn1nnnc1S` returned a melting point of 213 to 215 °C.

On to `Clc1ccnc(-c2ccccc2)n1`, for which the melting point was in the range of 69 to 71 °C.

Consider `NCc1nc2ccccc2s1`, for which the melting point was in the range of 199 to 201 °C.

With `Cc1cccc(C)c1OCCC(=O)O`, the melting point was in the range of 51 to 53 °C.

On to `CCCSc1ccc(C(=O)O)cc1`, for which the melting point lay within 141 to 143 °C.

Turning to `COCCNS(=O)(=O)c1cc(C(=O)O)ccc1OC`, the melting point lay in the range of 183 to 185 °C.

The compound `O=S(=O)(Nc1cccc(O)c1)c1ccccc1` returned a melting point of 127 to 129 °C.

In turn, `COc1ccc(CCC(C)(N)C(=O)O)cc1` (stereo not given) registered a melting point of 303 to 305 °C.

The compound `CCN(CC)S(=O)(=O)c1cc(N)ccc1Cl` gave a melting point of 95 to 99 °C.

On to `O=C(O)c1cccnc1S(=O)(=O)C(F)(F)F`, for which the melting point was in the range of 126 to 128 °C.

In turn, `CCc1c(C(C)(C)C)noc1N` had a melting point of 75 to 77 °C.

The compound `O=C(O)Cc1csc(-c2c(Cl)cccc2Cl)n1` came in with a melting point of 142 to 144 °C.

For the compound `COc1ccc(NS(=O)(=O)c2ccc(NN)c([N+](=O)[O-])c2)cc1`, the melting point was 204 to 206 °C.

Compound `Cc1ccc(Cl)c(S(=O)(=O)Cl)c1` displayed a melting point of 49 to 51 °C.

`O=C(O)c1cnco1` had a melting point of 226 to 230 °C.

In the case of `O=C(O)Cc1cccc2sccc12`, the melting point lay within 127 to 129 °C.

Take `O=S(=O)(Cl)c1cc2c(cc1Cl)OCCO2`: the melting point was in the range of 139 to 141 °C.

`Nc1ccc(Cl)cc1C(=O)Nc1ccc(Cl)cn1` came in with a melting point of 177 to 179 °C.

`Oc1ccccc1CNc1ccc(F)cc1` showed a melting point of 103 to 105 °C.

`Clc1ccc(OCCCBr)cc1` returned a melting point of 29 to 34 °C.

For `O=[N+]([O-])c1cc(S(=O)(=O)N2CCOCC2)ccc1N1CCOCC1`, the melting point is 154 to 156 °C.

Regarding `CCOc1ccc(N)cc1CO`, the melting point fell in the range of 77 to 79 °C.

In turn, `Nc1ncc(Cc2cccc(C(=O)O)c2)s1` returned a melting point of 217 to 219 °C.

For `CC(C)(C)OC(=O)NC1CCN(CC(=O)O)CC1`, the melting point was in the range of 204 to 206 °C.

As for `N#Cc1ccc(CCC(=O)O)cc1`, the melting point fell in the range of 137 to 139 °C.

Take `NC(=O)C1CC(O)CN1` (stereo not given): the melting point was 117 to 119 °C.

`O=C(O)CN1C(=O)CNC1=O` returned a melting point of 185 to 187 °C.

`COc1ccc(N)cc1-n1nnnc1C1CC1` yielded a melting point of 161 to 163 °C.

Turning to `Nc1ccn(-c2nccs2)n1`, the melting point was 99 to 101 °C.

Take `CS(=O)(=O)Nc1ccc(C(=O)O)cc1`: the melting point was 198 to 200 °C.

`O=C(O)c1cc(Cl)c2c(c1)OCO2` displayed a melting point of 239 to 241 °C.

With `CCn1ncc2ccc(N)cc21`, the melting point was in the range of 117 to 119 °C.

The compound `Sc1nnc2n(-c3ccccc3)c(-c3ccccc3)nn12` registered a melting point of 237 to 239 °C.

For the compound `Cc1ccc(C)n1-c1ccc(N)cc1`, the melting point lay in the range of 93 to 95 °C.

In the case of `Cc1ccc(-c2cnnc(N)n2)cc1`, the melting point was in the range of 277 to 279 °C.

For `O=C(O)c1cnc2c(cnn2Cc2cccnc2)c1`, the melting point fell in the range of 248 to 250 °C.

The compound `Nc1ccc(S(N)(=O)=O)cn1` had a melting point of 171 to 173 °C.

`CCOC(=O)Nc1nnc(S)s1` returned a melting point of 205 to 207 °C.

As for `NC1=NC(=O)NC12CCCC2`, the melting point fell in the range of 250 to 252 °C.

`CN1Cc2cc(Br)ccc2NC1=O` came in with a melting point of 209 to 211 °C.

`O=C(Nc1ccc(Cl)cn1)C1CCCNC1` (stereo not given): the melting point was 156 to 158 °C.

With `N#CCC(=O)c1c[nH]c2cc(F)ccc12`, the melting point lay in the range of 265 to 267 °C.

As for `COc1cc(CN)cc(OC)c1`, the melting point fell in the range of 35 to 37 °C.

Compound `O=S(=O)(Cl)c1c(Br)cc(F)cc1Br` registered a melting point of 82 to 84 °C.

With `CS(=O)(=O)Nc1ccc(S(N)(=O)=O)cc1F`, the melting point fell in the range of 190 to 192 °C.

For `O=C(O)COc1ccc(Cl)cc1C1CCCCC1`, the melting point is 167 to 169 °C.

Regarding `Cc1nn(CC(F)(F)F)cc1C(=O)O`, the melting point was in the range of 119 to 121 °C.

`CCOC(=O)c1oc2c(Cl)cccc2c1C` registered a melting point of 63 to 65 °C.

In turn, `O=C(O)C1CC1c1ccccc1OC(F)F` (stereo not given) gave a melting point of 63 to 65 °C.

`Cc1cc(C)c(Nc2nnc(S)s2)c(Cl)c1` registered a melting point of 198 to 200 °C.

As for `CCOC(=O)c1c[nH]cc(C)c1=O`, the melting point is 225 to 227 °C.

`CNC1CCCCNC1=O` (stereo not given): the melting point was 234 to 236 °C.

The compound `O=C(O)c1cc(C2CC2)nn1-c1ccccc1` displayed a melting point of 138 to 140 °C.

`CCCS(=O)(=O)Nc1ccc(C(=O)O)cc1` gave a melting point of 187 to 189 °C.

For the compound `O=C(O)CN1CC(=O)Nc2ccccc21`, the melting point lay in the range of 218 to 220 °C.

As for `CN(C)c1nc[nH]c(=O)c1N`, the melting point fell in the range of 158 to 160 °C.

With `COc1cc(Br)ccc1C#N`, the melting point fell in the range of 135 to 137 °C.

With `NNC(=O)CSc1ccccc1F`, the melting point lay within 131 to 133 °C.

In turn, `O=C(O)CCOc1ccc(-c2ccccc2)cc1` gave a melting point of 174 to 176 °C.

Consider `Cc1cc(C(=O)O)nc2nc(O)[nH]c(=O)c12`, for which the melting point fell in the range of 266 to 268 °C.

`O=[N+]([O-])c1cc(Cc2ccccc2)ccc1O`: the melting point lay within 70 to 72 °C.

For `Cc1cc(C(=O)O)c(F)cc1F`, the melting point lay within 159 to 161 °C.

In the case of `Cc1c(N)cccc1COc1ccccc1`, the melting point lay within 94 to 96 °C.

In the case of `CN(C(=O)C(C)(C)C)c1ccc(O)cc1`, the melting point was 189 to 191 °C.

As to `CC(=O)NCc1ccc(N)cc1`, the melting point is 92 to 94 °C.

Take `C1CCC(C2CCNCC2)CC1`: the melting point lay in the range of 73 to 75 °C.

For `Cc1nnc(-c2cccc(C#N)c2)[nH]1`, the melting point fell in the range of 173 to 175 °C.

The compound `CC1CNC(=O)N1c1cccc(N)c1` (stereo not given) came in with a melting point of 169 to 171 °C.

Turning to `CC(=O)c1ccc(SCC(=O)O)c(F)c1`, the melting point was 140 to 142 °C.

For `Cc1ccc(-n2c(C)nnc2S)cc1`, the melting point is 98 to 100 °C.

Turning to `O=C(O)c1ncccc1OCC(F)(F)F`, the melting point lay within 116 to 118 °C.

For the compound `Cc1ccc(-n2c(SCC(=O)NN)nnc2-c2ccccc2)cc1`, the melting point is 90 to 92 °C.

With `C=CCNC(=O)CN1CCNCC1`, the melting point was 63 to 65 °C.

In turn, `CCOc1ccc(Oc2ccc(S(=O)(=O)Cl)cc2)cc1` came in with a melting point of 88 to 90 °C.

With `Cc1nnc(S)n1CC(=O)N(C)C`, the melting point fell in the range of 260 to 262 °C.

Regarding `Cc1cc(CN2CCNCC2)no1`, the melting point was in the range of 59 to 71 °C.

`COc1ccc(-c2cc(N)on2)c(OC)c1OC` came in with a melting point of 161 to 163 °C.

For `O=C1CCCN1Cc1nnc(S)o1`, the melting point is 172 to 174 °C.

The compound `NC(=S)CO` returned a melting point of 54 to 56 °C.

Take `Cn1cc(C(=O)O)c(=O)c2cc(Cl)ccc21`: the melting point lay in the range of 302 to 304 °C.

As to `O=C(O)c1ccc(CO)o1`, the melting point was 164 to 166 °C.

In turn, `CCCS(=O)(=O)c1ccc(C(=O)O)cc1` returned a melting point of 193 to 195 °C.

For the compound `O=C(O)c1cc(F)cc2cccnc12`, the melting point is 159 to 161 °C.

Take `NC(CC(=O)O)C1CCOCC1` (stereo not given): the melting point was in the range of 228 to 230 °C.

For the compound `CCN1CCN(c2ccc(Cl)cc2N)CC1`, the melting point fell in the range of 110 to 112 °C.

In turn, `COc1ccc(-n2c(S)nnc2-c2ccncc2)cc1` came in with a melting point of 242 to 244 °C.

`CC(=O)c1nnn(-c2ccc(C)cc2)c1C`: the melting point was 111 to 113 °C.

As for `O=CC(C=O)SCc1ccccc1`, the melting point fell in the range of 128 to 130 °C.

The compound `CCC(=O)NCC(=O)O` yielded a melting point of 121 to 123 °C.

For the compound `NC(=S)Cc1ccccc1`, the melting point was 84 to 86 °C.

As to `COc1ccc(NC(=O)CCCl)c([N+](=O)[O-])c1`, the melting point was in the range of 97 to 99 °C.

In turn, `CCCCCCCC(=O)NCC(=O)O` yielded a melting point of 104 to 106 °C.

Compound `Cc1cccc(C)c1NC(=O)CCCCl` gave a melting point of 104 to 106 °C.

In turn, `CN(C)C(=O)Cn1cc(Br)cn1` came in with a melting point of 163 to 165 °C.

In turn, `Nc1cc(CSCCO)ccn1` displayed a melting point of 90 to 92 °C.

As for `O=C(CO)Nc1ccccc1`, the melting point was 79 to 81 °C.

As for `O=C(O)c1cc2c(F)c(F)ccc2[nH]1`, the melting point fell in the range of 209 to 211 °C.

As to `COc1cc(C(=O)O)sc1S(N)(=O)=O`, the melting point is 254 to 256 °C.

The compound `O=C(O)c1cc2cccc(F)c2o1` gave a melting point of 242 to 244 °C.

In the case of `COCc1cc([N+](=O)[O-])ccc1N`, the melting point is 83 to 85 °C.

Compound `Cc1cnc2c(c1)NC(=O)CN2` showed a melting point of 249 to 251 °C.

`NC(=O)CNC(=O)c1ccc(O)cc1` returned a melting point of 264 to 266 °C.

Compound `CC(C)(C)c1nc(C#N)c(NN)o1` had a melting point of 164 to 166 °C.

Regarding `O=C1CCc2cc(C(=O)c3c(F)cccc3F)ccc2N1`, the melting point was 248 to 250 °C.

`Cc1cc(NC(=O)C(C)SCC(=O)O)no1` (stereo not given) gave a melting point of 125 to 127 °C.

For `O=C(NC1CC1)C1CCNCC1`, the melting point fell in the range of 135 to 137 °C.
